T/C data for 16 molecules are collected here from PubChem BioAssay AID248 (DTP/NCI, 2004).

In the assay the test system is L1210 leukemia ip in BDF1 mice, survival T/C. The assay is described as follows: NCI In Vivo Anticancer Drug Screen. Data for tumor model L1210 Leukemia (intraperitoneal) in B6D2F1 (BDF1) mice. The following applies: endpoint: mean survival time, higher = longer survival. The procedure, abridged: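 Value reflects the ratio of survival in compound-treated mice to survival in vehicle-treated controls, with both groups carrying the same transplanted tumor.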

Where [1] appears, read: dose: 100.0 mg/kg/injection, schedule: Q04DX003 (ip), vehicle: Klucel (hydroxypropylcellulose) (HPC).
Where [2] appears, read: dose: 100.0 mg/kg/injection, schedule: Q04DX003 (ip), vehicle: saline.
The mark [3] stands for this setting: dose: 200.0 mg/kg/injection, schedule: Q04DX003 (ip), vehicle: Klucel (hydroxypropylcellulose) (HPC).
The mark [4] stands for this setting: dose: 200.0 mg/kg/injection, schedule: Q04DX003 (ip), vehicle: saline.
Setting [5] is: dose: 100.0 mg/kg/injection, schedule: Q01DX009 (ip), vehicle: Klucel (hydroxypropylcellulose) (HPC).
The mark [6] stands for this setting: dose: 200.0 mg/kg/injection, schedule: Q01DX009 (ip), vehicle: Klucel (hydroxypropylcellulose) (HPC).
Setting [7] is: dose: 200.0 mg/kg/injection, schedule: Q01DX009 (ip), vehicle: saline with Tween-80.
The mark [8] stands for this setting: dose: 400.0 mg/kg/injection, schedule: Q04DX003 (ip), vehicle: Klucel (hydroxypropylcellulose) (HPC).
Where [9] appears, read: dose: 100.0 mg/kg/injection, schedule: Q04DX003 (ip), vehicle: saline with Tween-80.
Setting [10] is: dose: 200.0 mg/kg/injection, schedule: Q04DX003 (ip), vehicle: saline with Tween-80.
Where [11] appears, read: dose: 400.0 mg/kg/injection, schedule: Q04DX003 (ip), vehicle: saline with Tween-80.
Where [12] appears, read: dose: 100.0 mg/kg/injection, schedule: Q01DX009 (ip), vehicle: carboxymethylcellulose (CMC).
[13] abbreviates: dose: 200.0 mg/kg/injection, schedule: Q01DX009 (ip), vehicle: carboxymethylcellulose (CMC).
Where [14] appears, read: dose: 400.0 mg/kg/injection, schedule: Q01DX009 (ip), vehicle: carboxymethylcellulose (CMC).

Values joined by “and” are separate entries in the source; they are usually repeats but may differ in a detail not shown here. Equal values may be shown once. Toxic doses and inconclusive results are not listed.

Regarding `Cc1ccc(CS(=O)C(Cl)(Cl)c2ccc(C)cc2)cc1` (configuration not stated), the T/C is, setting by setting: (dose: 100.0 mg/kg/injection, schedule: Q04DX002 (ip), vehicle: Klucel (hydroxypropylcellulose) (HPC)) 97 % of control; (dose: 200.0 mg/kg/injection, schedule: Q04DX002 (ip), vehicle: Klucel (hydroxypropylcellulose) (HPC)) 94 % of control; (dose: 400.0 mg/kg/injection, schedule: Q04DX002 (ip), vehicle: Klucel (hydroxypropylcellulose) (HPC)) 97 % of control.

On to `O=C(OCC1OCOC(COC(=O)c2ccccc2)C(OC(=O)c2ccccc2)C1OC(=O)c1ccccc1)c1ccccc1` (configuration not stated), for which the T/C (dose: 50.0 mg/kg/injection, schedule: Q04DX002 (ip), vehicle: saline with Tween-80) was 88 % of control.

With `O=C1OC(=O)C2C3C=CC(CC3)C12` (configuration not stated), the T/C is, setting by setting: under setting [1], 96 % of control; under setting [2], 98 % of control; under setting [3], 100 % of control; under setting [4], 98 % of control.

As for `CC1(C)CC(C)(c2ccc(-n3c(-c4ccccc4)nc4ccccc4c3=O)cc2)c2ccccc2S1` (configuration not stated), the T/C reads like this: (dose: 100.0 mg/kg/injection, schedule: Q01DX001 (ip), vehicle: saline) 91 % of control; (dose: 200.0 mg/kg/injection, schedule: Q01DX001 (ip), vehicle: saline) 91 % of control; (dose: 400.0 mg/kg/injection, schedule: Q01DX001 (ip), vehicle: saline) 87 % of control.

As for `c1cc2c(c(NC3=NCCN3)c1)CCCC2`, the T/C is, setting by setting: (dose: 12.5 mg/kg/injection, schedule: Q01DX009 (ip), vehicle: saline with Tween-80) 98 % of control; (dose: 25.0 mg/kg/injection, schedule: Q01DX009 (ip), vehicle: saline with Tween-80) 93 % of control; (dose: 50.0 mg/kg/injection, schedule: Q01DX009 (ip), vehicle: saline with Tween-80) 95 % of control.

Take `OC(c1ccccc1)C1C2C=CC(C2)C1C(O)c1ccccc1` (configuration not stated): the T/C runs as follows: under setting [5], 101 % of control; under setting [6], 86 % of control; (dose: 300.0 mg/kg/injection, schedule: Q01DX009 (ip), vehicle: Klucel (hydroxypropylcellulose) (HPC)) 95 % of control.

As for `CC(NCCN1CC1)C1CC1` (configuration not stated), for the setting “dose: 20.0 mg/kg/injection, schedule: Q01DX009 (ip), vehicle: saline”, the T/C is 120 % of control.

For the molecule `Nc1nc(SCC(=O)c2ccccc2)c2[nH]cnc2n1`, the T/C is 153 % of control (dose: 117.0 mg/kg/injection, schedule: Q01DX009 (ip), vehicle: saline with Tween-80); 151 % of control (dose: 176.0 mg/kg/injection, schedule: Q01DX009 (ip), vehicle: saline with Tween-80); 104 % of control under setting [7]; 156 % of control (dose: 264.0 mg/kg/injection, schedule: Q01DX009 (ip), vehicle: saline with Tween-80); 152 % of control (dose: 400.0 mg/kg/injection, schedule: Q01DX009 (ip), vehicle: saline with Tween-80).

Take `O=C(c1ccccc1)c1nc2ccccc2nc1-c1ccccc1`: the T/C reads like this: under setting [1], 92 % of control; under setting [3], 92 % of control; under setting [8], 89 % of control.

In the case of `COc1cc(Oc2c(OC)cc(N)cc2OC)cc(OC)c1OC`, the T/C under setting [9] is 97 % of control, the T/C under setting [10] is 95 % of control and the T/C under setting [11] was 95 % of control.

`CCC(O)c1cnc(OCc2ccccc2)nc1OCc1ccccc1` (configuration not stated): the T/C under setting [5] is 94 % of control; the T/C under setting [1] was 96 % of control; the T/C under setting [6] is 95 % of control; the T/C under setting [3] was 95 % of control; the T/C (dose: 400.0 mg/kg/injection, schedule: Q01DX009 (ip), vehicle: Klucel (hydroxypropylcellulose) (HPC)) is 90 % of control; the T/C under setting [8] is 100 % of control.

On to `O=[N+]([O-])c1cncn1CCN1CCOCC1`, for which the T/C reads like this: (dose: 100.0 mg/kg/injection, schedule: Q01DX001 (ip), vehicle: carboxymethylcellulose (CMC)) 88 % of control; (dose: 200.0 mg/kg/injection, schedule: Q01DX001 (ip), vehicle: carboxymethylcellulose (CMC)) 88 % of control; (dose: 400.0 mg/kg/injection, schedule: Q01DX001 (ip), vehicle: carboxymethylcellulose (CMC)) 94 % of control.

Turning to `CC1CCCC(C)N1CC(O)c1ccccc1` (configuration not stated), the T/C (dose: 6.25 mg/kg/injection, schedule: Q04DX003 (ip), vehicle: saline with Tween-80) was 94 % of control; the T/C (dose: 12.5 mg/kg/injection, schedule: Q04DX003 (ip), vehicle: saline with Tween-80) was 97 % of control; the T/C (dose: 25.0 mg/kg/injection, schedule: Q04DX003 (ip), vehicle: saline with Tween-80) was 97 % of control.

For the molecule `Cc1cc(C)c(/C=N/O)c(C)c1`, the T/C is, setting by setting: (dose: 50.0 mg/kg/injection, schedule: Q01DX009 (ip), vehicle: acetone) 93 % of control; (dose: 100.0 mg/kg/injection, schedule: Q01DX009 (ip), vehicle: acetone) 87 % of control; under setting [2], 102 % of control; under setting [4], 97 % of control; (dose: 400.0 mg/kg/injection, schedule: Q04DX003 (ip), vehicle: saline) 100 % of control.

As to `O=CC(O)C(O)C(OC1OC(CO)C(O)C(O)C1O)C(O)CO` (configuration not stated) (tested in a mixture with another compound), the T/C was 105 % of control (dose: 75.0 mg/kg/injection, schedule: Q01DX009 (ip), vehicle: carboxymethylcellulose (CMC)); 94 % of control and 98 % of control (dose: 100.0 mg/kg/injection, schedule: Q01DX001 (ip), vehicle: saline with Tween-80); 98 % of control under setting [12]; 94 % of control (dose: 100.0 mg/kg/injection, schedule: Q01DX009 (ip), vehicle: saline with Tween-80); 108 % of control [middle of 4 runs] (dose: 100.0 mg/kg/injection, schedule: Q04DX002 (ip), vehicle: saline with Tween-80); 97 % of control and 108 % of control under setting [9]. Besides, the T/C is, setting by setting: (dose: 150.0 mg/kg/injection, schedule: Q01DX009 (ip), vehicle: carboxymethylcellulose (CMC)) 105 % of control; (dose: 200.0 mg/kg/injection, schedule: Q01DX001 (ip), vehicle: saline with Tween-80) 98 % of control and 105 % of control; under setting [13], 105 % of control; under setting [7], 100 % of control; (dose: 200.0 mg/kg/injection, schedule: Q04DX002 (ip), vehicle: saline with Tween-80) 97 % of control [middle of 4 runs]; under setting [10], 91 % of control and 92 % of control. In addition, the T/C was 100 % of control (dose: 300.0 mg/kg/injection, schedule: Q01DX009 (ip), vehicle: carboxymethylcellulose (CMC)); 93 % of control and 92 % of control (dose: 400.0 mg/kg/injection, schedule: Q01DX001 (ip), vehicle: saline with Tween-80); 96 % of control under setting [14]; 96 % of control and 92 % of control and 94 % of control (dose: 400.0 mg/kg/injection, schedule: Q04DX002 (ip), vehicle: saline with Tween-80); 101 % of control and 92 % of control under setting [11].

Consider `Cc1c(F)cccc1C(=O)O`, for which the T/C is 101 % of control and 102 % of control under setting [12]; 100 % of control (dose: 100.0 mg/kg/injection, schedule: Q04DX002 (ip), vehicle: carboxymethylcellulose (CMC)); 103 % of control (dose: 100.0 mg/kg/injection, schedule: Q04DX003 (ip), vehicle: carboxymethylcellulose (CMC)); 102 % of control and 87 % of control under setting [13]; 93 % of control and 105 % of control (dose: 200.0 mg/kg/injection, schedule: Q04DX002 (ip), vehicle: carboxymethylcellulose (CMC)); 103 % of control (dose: 200.0 mg/kg/injection, schedule: Q04DX003 (ip), vehicle: carboxymethylcellulose (CMC)). Also, the T/C reads like this: under setting [14], 97 % of control and 90 % of control; (dose: 400.0 mg/kg/injection, schedule: Q04DX002 (ip), vehicle: carboxymethylcellulose (CMC)) 93 % of control and 102 % of control; (dose: 400.0 mg/kg/injection, schedule: Q04DX003 (ip), vehicle: carboxymethylcellulose (CMC)) 101 % of control.
